Source: US20040033982A1, “Viral inhibition by n-docosanol” (priority 2001, published 2004)

Key:
Type in all cases: cell-based
wild-type HSV-2 = test: Plaque formation by wild-type HSV-2 in Vero cells; conditions: FIG. 7, Panel A
Method: (§1) FIG. 7 depicts data showing that n-docosanol inhibits acyclovir-resistant HSV-2. Vero cells were cultured in 35-mm wells (6×10^5 cells per well) in medium alone (=none) or in the presence of the indicated concentration of acyclovir, n-docosanol-Pluronic F-68 suspension or control suspension (Pluronic F-68 only). The cultures were inoculated 24 hours later with 150 PFU of either wild-type HSV-2 or an acyclovir-resistant laboratory isolate from the wild-type HSV-2 that was plaque purified and passaged in 20 μg/ml acyclovir 44 hours later, the plates were incubated, fixed, stained, and scored for numbers of plaques. The data presented are means of plaques scored from duplicate cultures. The percent inhibition observed in cultures treated with acyclovir or n-docosanol relative to untreated control cultures is denoted in parentheses.

HSV-1(KOS)gL86 = test: Entry of HSV-1(KOS)gL86 into HEp-2 cells (beta-galactosidase, OD600)
Method: After attachment of HEp2 cells to culture wells, n-docosanol-vehicle, vehicle alone, or no agent (control) was added. Five to six hours after infection, the cells were processed, X-gal was added, and the absorbance at 600 nm was determined.
Twenty-four hours before infection, cultured cells were seeded into 24-well (16-mm) plates at 2.5×10^6 cells/well in 0.5 ml cDMEM supplemented with 10% fetal bovine serum (FES). After cell attachment (4-6 h later) heparin, n-docosanol-surfactant, or surfactant alone was added to the cells in 0.5 ml DMEM/10% FES. The agents were dissolved in the medium at two times the desired final concentration. For infection, 0.7 ml of medium was removed from each well and 25 μl of virus suspension was added to the remaining 0.3 ml to give a virus dose of at least 20 p.f.u./cell The plates were rocked at 37° C. for 3 h and then put in a 37° C. […]
At 5-6 h after infection, the cells were fixed with PES containing 2% formaldehyde and 0.2% glutaraldehyde, washed, then permeabilized with 0.02% NP-40, 0.01% deoxycholate and 2 mM MgCl2. […] To quantify the amount of color in each well the glycerol was removed from all wells that were then washed 3× with distilled H2O. DMSO (0.6 ml) was added to solubilize the dye and, after transferring 100 μl of each sample well from the 24-well plate to a 96-well plate, the OD600 was recorded using a 96-well plate reader. […]

[1] = tested on: acyclovir-resistant HSV-2; test: Plaque formation by acyclovir-resistant HSV-2 in Vero cells; conditions: FIG. 7, Panel B
Method: as §1

HSV-I = test: Binding of [3H]HSV-I to Vero cells; conditions: virus at 2 p.f.u./cell; n-docosanol 15 mM
Excerpt: Attachment of HSV-I to specific cell surface receptors is unaffected in n-docosanol-treated cells. Previous studies have verified that attachment of HSV-1 to specific cell surface receptors is unaffected in n-docosanol-treated cells. […] Heparin inhibited this interaction 96%.

Row | Compound | inhibition of plaque formation (wild-type HSV-2) | inhibition of the beta-galactosidase signal (HSV-1(KOS)gL86) | inhibition of plaque formation [1] | inhibition of [3H]HSV-I binding (HSV-I) [%] | concentration at which inhibition appeared to be complete (HSV-1(KOS)gL86; examined between 1 and 10 μg/ml) [µg/mL]
1 | Nc1nc2c(ncn2COCCO)c(=O)[nH]1 [acyclovir, reference compound] | inhibit plaque formation by wild type HSV-2 equally | not inhibited | not inhibited | – | –
2 | Heparin [reference compound] | – | – | – | 96 | 6
